Values joined by “and” are separate entries in the source; they are usually repeats but may differ in a detail not shown here. Equal entries are not always repeated.

In one data set the test system is UMPS locus. Description: InDel quantification by ICE and ICE-D in activated T cells. The format is cell-based, human. Particulars: for ICE InDels (%) / ICE-D InDels (%): Cas9 RNP electroporated into activated T cells, 4 days. The text has this:
sgRNAs were acquired with chemical modifications from Synthego Corporation. The sgRNAs were complexed with Cas9 protein (IDT) at a molar ration of 2.5:1 (sgRNA:protein) and electroporated into activated T cells using a 4D-NUCLEOFECTOR™ system (Lonza). 4 days later, cells were harvested, and genomic DNA extracted using QUICKEXTRACT™ DNA Extraction Kit (Epicentre) according to the manufacturer's protocol. The sgRNA target site was amplified with specific primers (Table 18) and the amplicon sequenced by Sanger sequencing (MCLab, South San Francisco).
InDel quantification was performed on the sequences using the interference of CRISPR edits (ICE) and ICE-D online tools (ice.synthego.com) (FIG. 5A).

For data set [1] the following is noted: cited from earlier work.
In data set [2] the test system is UMPS wild-type K562 cells. Briefly: K562 xenograft model, bioluminescence imaging. The format is in vivo, NSG mice. Conditions: subcutaneous xenograft, normal or UTA supplemented food. From the text: (§1) For the K562 xenograft assay, 6 to 12 weeks old male NOD SCID gamma mouse (NSG) mice were transplanted with 1×10^6 K562 cells resuspended in […]® protein mixture (Corning, Inc.) 1:1 diluted with PBS under anesthesia. All animals were kept and handled according to institutional guidelines and the experimental protocol was approved by Stanford University's Administrative Panel on Laboratory Animal Care.
(§2) The previously engineered UMPS^KO/KO K562 cell line expressing firefly luciferase (FLuc) was used in a xenograft model in NSG mice. […] Cas9 RNP is targeted to exon 1 of the HBB locus with a guide RNA and a DNA donor template transduced by rAAV6 which carries a FLuc-2A-GFP-polyA cassette under control of the SFFV promoter. FACS analysis was performed four days after targeting of K562 cells to evaluate GFP expression before sorting of the GFP+ population. In a control group administered the AAV only, 1.61% of the cells were GFP+, and […].
(§3) UTA was acquired from Accela ChemBio Inc. and added to make the 8% (w/w) to Teklad mouse food (Envigo) and the food irradiated before use. […]
(§4) UMPS^KO/KO K562 cells or control cells were transplanted subcutaneously and observed weekly with bioluminescence imaging. Luminescence imaging of K562 cells was performed 5 minutes after intraperitoneal (ip) injection of 125 mg/kg D-Luciferin (PerkinElmer) on an IVIS Spectrum imaging system (PerkinElmer). […]

The next data set concerns UMPS^KO/KO K562 cells. Briefly: K562 xenograft model, bioluminescence imaging. The class given is in vivo, NSG mice. Particulars: subcutaneous xenograft, food with 8% UTA vs food without UTA.
Description: as §1, §2, §3, §4

Data set [3] deals with UMPS^KO/KO engineered hES cells. Briefly: Teratoma formation from engineered hES cells. The format is in vivo, NSG mice. Here is the method:
To determine whether the safety switch can eradicate teratomas that originate from pluripotent cells, iPSCs or ES cells that were genetically modified (or control cells) were transplanted into mice. The cells expressed luciferase for in vivo detection. 1×10^6 UMPS-engineered hESCs were resuspended in a 100 μl of […]® protein mixture (Corning, Inc.) and PBS mixture and injected into the gastrocnemius muscle of the right hind leg of anesthetized NSG mice. The mice were followed up for tumor formation by tumor size measurement and by bioluminescence imaging. After establishment of tumors, whether withdrawal of Uridine triacetate (UTA) led to tumor regression was tested. At the endpoint (tumor sizes above 1.7 cm or impairment of mouse activity, otherwise 24 weeks) tumor was explanted and fixated for histological analysis.
Auxotrophic cell proliferation of the UMPS^KO/KO engineered hES cells in vivo was also analyzed. […] Bone marrow is analyzed at the time that the animal dies or is sacrificed (latest 16 weeks after injection). […] Groups were compared by statistical tests as indicated using Prism 7 (GraphPad).

As to “UMPS-3: sgRNA for UMPS exon 1, target sequence + PAM CCCCGCAGATCGATGTAGAT GGG (SEQ ID NO: 4) (guide CCCCGCAGATCGATGTAGATGGG; target sequence plus PAM, further chemistry not given here; listed as Homo sapiens)”, in the data set with UMPS locus, the “ICE InDels (%)” value was found to be 45% and the “ICE-D InDels (%)” value is 43%.

Regarding “UMPS-6: sgRNA for UMPS exon 1, target sequence + PAM GGCGGTCGCTCGTGCAGCTT TGG (SEQ ID NO: 6) (guide GGCGGTCGCTCGTGCAGCTTTGG; listed as DNA, chemistry not given here; the letters are possibly those of the target site; listed as Homo sapiens)”, in the data set with UMPS locus, the “ICE InDels (%)” value was 12% and the “ICE-D InDels (%)” value turned out to be 11%.

As for `CC(=O)OC[C@H]1O[C@@H](n2ccc(=O)[nH]c2=O)[C@H](OC(C)=O)[C@@H]1OC(C)=O` [UTA, uridine triacetate], in data set [1] (humans and mouse models, administration of prodrug), the “increase of uridine serum levels” value was “greater than 10 fold”. In data set [1] (mice, food enriched with 8% (w/w) UTA), the tolerability result was “well tolerated”. Also, the “tumor burden of UMPS wild-type K562 cells” value in data set [2] was “increase in tumor burden”. The “luminescence of UMPS^KO/KO K562-derived tumors” value in the data set with UMPS^KO/KO K562 cells is on record as “only increased in the mice fed with 8% UTA”. In data set [3] (NSG mice fed 8% (w/w) UTA food, 7 weeks after cell injection into hind leg, per mouse), the Teratoma weight, Weight [g] was 3.11 g and 0.033 g and 2.92 g and 1.54 g and 0.937 g. In addition, the teratoma formation entry in data set [3] (mice fed with UTA, 7 weeks after cell injection) is “large teratomas”.

B1: UMPS-7: sgRNA for UMPS exon 1, target sequence + PAM … TGG (SEQ ID NO: 5); gRNA SEQ ID NO: 1 (nucleic acid)
guide: GCCCCGCAGAUCGAUGUAGAGUUUUAGAGCUAGAAAUAGCAAGUUAAAAUAAGGCUAGUCCGUUAUCAACUUGAAAAAGUGGCACCGAGUCGGUGCUUUU
modifications: listed as RNA, chemistry not given here
With B1, in the data set on UMPS locus, the “ICE InDels (%)” value is given as 39% and the “ICE-D InDels (%)” value was 93%. Also, in the data set on UMPS locus (detectable by ICE-D but not by ICE or TIDE), the “type of edits created” value is “high proportion of large (greater than 30 bp) deletions”. Also, the “frequency of InDels in initial screening” value with UMPS locus (initial sgRNA screening) was “highest frequency of InDels”.
